“Also recorded” adds a separate entry of the source.
Key:
[1] = system: rat hippocampal neurons expressing GFP-tagged wild-type human tau; test: Mislocalization of tau to dendritic spines caused by Aβ oligomers; assay type: cell-based; conditions: Aβ oligomers 0.1 μM with AP peptide 1 μM, 3 days
Method: FIG. 11A Cultured 21 days in vitro (DIV) rat hippocampal neurons expressing DsRed (left panels) and GFP-tagged wild-type human tau (middle panels) were untreated (top panels), treated with Aβ oligomers alone (0.1 μM) (middle panels), or treated with Aβ oligomers (0.1 μM) with AP peptide (1 μM) (bottom panels) for 3 days.

[2] = system: neurons expressing GFP-tagged P301L-tau; test: Missorting of tau to dendritic spines in neurons expressing P301L mutant tau, peptide treatment; assay type: cell-based, rat; conditions: for proportion of dendritic spines that contain tau (tau mis-sorting caused by P301L mutation): 21 DIV neurons, GFP-tagged P301L-tau, peptide 1 μM for 3 days
Method: FIG. 10A-FIG. 10B show missorting of tau to dendritic spines caused by P301L mutation is blocked by Peptide 1 and Peptide 2 but not Peptide 3. FIG. 10A 21 days in vitro (DIV) neurons expressing DsRed (left panels) and GFP-tagged P301L-tau (middle panels) were treated with AP peptide (Peptide 2; 1 μM) for 3 days (top panels: untreated; bottom panels: treated).
Transfected cells were continually bathed in neurobasal media and were passively perfused with medical-grade 95% O2-5% CO2. Micrographs were taken on a Nikon epifluorescent inverted microscope with 60× oil lens with a computerized focus motor at DIV 21-23. All digital images were processed using METAMORPH Imaging System (Universal Imaging Corporation, Molecular Devices, San Jose, Calif.). Images were taken as 15 plane stacks at 0.5 micron increments, processed by deconvolution to the nearest planes, and averaged against other stacked images. A dendritic spine was defined as having an expanded head diameter, greater than 50% larger in diameter than the neck. The number of spines per neuron were counted and normalized to a […] length of dendritic shaft. […]

[3] = system: rat hippocampal neurons expressing GFP-WT-tau; test: Tau missorting to dendritic spines in mechanically injured (stretched) neurons, TBI model; assay type: cell-based; conditions: 10 stretches, 2% strain; AP peptide 1 μM
Method: FIG. 12A. Representative live images of cultured rat hippocampal neurons that had been co-transfected with plasmids of DsRed (left lane; a red fluorescence protein to label dendritic spines) and green fluorescence protein (GFP)-tagged wild-type tau (GFP-WT-tau; middle lane) with overlay images on the right lane 2 days after the delivery of a mechanical protocol. The neurons were cultured on a plastic membrane and were stretched by a computer-controlled mechanical device, as described in Example 2 (10 stretches; 2% mechanical strain; 1 second interval between stretches) in 21 days in vitro (DIV). Arrows denote dendritic spines that contain tau and triangles denote dendritic spines devoid of tau. FIG. 12B. […] FIG. 12C. […] ANOVA was used in FIG. 12B and FIG. 12C; *** indicates p<0.001.
In a tauopathy model for traumatic brain injuries (TBI) based on the model of Hemphill et al. 2011 PLoS One. 6(7):e2289), mechanical injuries to neurons induce tau missorting to dendritic spines (FIG. 12). The methods of Hemphill et al. were modified such that plasmids encoding GFP-tagged tau were introduced into neurons, allowing detection of tau abnormalities as well as tau-mediated synaptic deficits. Briefly, neurons were plated onto medical grade silicone elastomer membranes (0.010 inch NRV, Specialty Manufacturing, Inc., Saginaw, Mich.) and glued inside a reducing well. […]

[4] = system: rat hippocampal neurons expressing P301L mutant eGFP-tau; test: P301L mutant tau mislocalization to dendritic spines, kinase inhibitor treatment; assay type: cell-based
Text: FIG. 5A. […] FIG. 5B. […] FIG. 5C. […] FIG. 5D. […] FIG. 5E.

[5] = system: low density hippocampal neurons from G2-3 mice; test: GluA1 surface expression in dendritic spines of G2-3 neurons; assay type: cell-based, mouse
Text: FIG. 21A. Photomicrographs of neurons from G2-3 mice and their TgNg littermates without (top two panels) and with treatment of CHIR-99021 (bottom two panels). As previously described (Liao et al. 1999 Nature Neuroscience 2(1): 37-43), live neurons were stained for N-GluA1 antibodies (green), fixed, permeablized, and stained for PSD-95 (red). Arrows indicate tightly clustered surface N-GluA1 colocalized with PSD-95, whereas weak, non-specific N-GluR1 immunoreactivity appeared along the dendritic shafts as diffuse staining rather than distinct clusters in G2-3 neurons (arrow heads). The diffuse staining is likely due to the presence of extrasynaptic AMPA receptors (Newpher and Ehlers 2008 Neuron 58: 472-97). […] Scale bar: […]. FIG. 21B. GluA1 surface fluorescence in PSD-95 immunoreactive spines was normalized to dendritic fluorescence. […] For all n=8; data are expressed as mean±s.e.m. […]
Cultured neurons were fixed and permeabilized successively with 4% paraformaldehyde, 100% methanol, and 0.2% Triton X-100 (Lin et al. 2009 Neuropsychopharmacology 34(9):2097-111). […] In FIG. 4A-FIG. 4B, the number of synaptophysin clusters and their colocalization with boutons of neurons expressing eGFP or eGFP-labeled αS were automatically counted using ImageJ software (available on the world wide web at imagej.nih.gov/ij/). […] DAPI stained nuclei were manually counted from wide-field photomicrographs. […]

[6] = system: cultured G2-3 (A53T αS) mouse hippocampal neurons expressing eGFP-WT tau; test: A53T αS-dependent mislocalization of tau to dendritic spines, GSK3β inhibition; assay type: cell-based; conditions: 3 μM, applied at 16 DIV, imaged at 21 DIV
[7] = system: primary cultured rat hippocampal neurons; test: Cell death of cultured neurons under kinase inhibitor treatment; assay type: cell-based; conditions: Sprague-Dawley, 24 h
Method: Roscovitine and CHIR99021 were purchased from Sigma-Aldrich (St. Louis, Mo.) and were diluted in DMSO to four 1000× concentration aliquots for ultimate concentrations in neurobasal medium of […]. Primary cultured rat hippocampal neurons transfected with dsRed and eGFP-P301L-tau were treated with one of four 1000× aliquots or DMSO vehicle on DIV 20-22. Treated cells were incubated for 24 hours prior to imaging on DIV 21-23. Cell death was visually assessed under differential interference contrast (DIC) for decreased cell density, lost soma adhesion, gross qualitative neurite retraction. If evidence of cell death was observed under DIC, cells were fixed in 4% sucrose and 4% paraformaldehyde in PBS and stained with 300 nM DAPI in PBS. DAPI stained cells were analyzed under fluorescent microscopy for nuclear pyknosis and karyorrhexis; dsRed expressing cells were analyzed for spine loss. If no cell death was evident under DIC, live fluorescent images were acquired and analyzed as above.

[8] = system: cultured rat hippocampal neurons expressing A53T αS; test: AMPA receptor mEPSCs in neurons transfected with A53T αS; assay type: cell-based; conditions: GSK3β inhibition with CHIR
[9] = 500 nM chir99021 and 500 nM roscovitine in combination
[10] = either drug alone, concentrations up to 5 μM

H2N-GRKKRRQRRRPQDHGAEIVYKAPVVSGDTAPRHLSNVS ST-OH (H-GRKKRRQRRRPQDHGAEIVYKAPVVSGDTAPRHLSNVSST-OH) [Peptide 2]
proportion of dendritic spines that contain tau, increase caused by Aβ oligomers [1]: blocked
proportion of dendritic spines that contain tau, increase caused by Aβ oligomers ([1]; listed as AP peptide): block tau mislocalization; also recorded: can block tau missorting to dendritic spines
proportion of dendritic spines that contain tau (tau mis-sorting caused by P301L mutation) [2]: block mislocalization of tau
proportion of dendritic spines that contain tau (tau mis-sorting caused by P301L mutation) ([2]; listed as AP peptide): blocked tau mis-sorting; also recorded: significantly decreased
strength of effect on tau mis-sorting compared with WT peptide ([2]; neurons expressing P301L mutant tau): stronger effect
proportion of dendritic spines containing tau after mechanical stretches [3]: blocked tau missorting to dendritic spines

CC[C@H](CO)Nc1nc(NCc2ccccc2)c2ncn(C(C)C)c2n1 [roscovitine]
percentage of eGFP-containing spines [4, 9]: reduced the percentage of eGFP-containing spines to that of wild type eGFP-tau
percentage of eGFP-containing spines [4, 10]: neither drug alone, at concentrations up to 5 μM, lowered the percentage of eGFP-containing spines to control levels

Cc1c[nH]c(-c2cnc(NCCNc3ccc(C#N)cn3)nc2-c2ccc(Cl)cc2Cl)n1 [CHIR99021]
surface N-GluA1 synaptic localization (colocalization with PSD-95) ([5]; listed as CHIR): strong colocalization of PSD-95 and N-GluA1 clusters is restored
surface N-GluA1 synaptic localization (colocalization with PSD-95) ([5]; listed as CHIR-99021): restored surface N-GluA1 synaptic localization
increase in dendritic spines containing mislocalized eGFP-tau in G2-3 neurons [6]: blocked
concentration that killed the neurons [7]: above 5 μM
drug concentration at which overt cell death was observed [7]: exceeded 5 M
postsynaptic deficits (mEPSC amplitude) caused by A53T αS transfection [8]: completely reverse
percentage of eGFP-containing spines [4, 9]: reduced the percentage of eGFP-containing spines to that of wild type eGFP-tau
percentage of eGFP-containing spines [4, 10]: neither drug alone, at concentrations up to 5 μM, lowered the percentage of eGFP-containing spines to control levels

H2N-GRKKRRQRRRPQDHGAEIVYKEPVVSGDTEPRHLSNVS ST-OH (H-GRKKRRQRRRPQDHGAEIVYKEPVVSGDTEPRHLSNVSST-OH) [Peptide 3]
proportion of dendritic spines that contain tau (tau mis-sorting caused by P301L mutation) [2]: did not block
proportion of dendritic spines that contain tau (tau mis-sorting caused by P301L mutation) ([2]; listed as EP Peptide): No decrease
proportion of dendritic spines that contain tau (tau mis-sorting caused by P301L mutation) ([2]; listed as EP peptide): did not block tau mis-sorting
